IC50 data for 31 molecules are collected here from patent US9353089B2, “Compositions and methods for the treatment of malaria” (Saint Louis University, priority 2013, dated 2016).

Assay [1] concerns Plasmodium falciparum 3D7 (CQ-sensitive). Put plainly: In vitro antimalarial assay (malaria SYBR Green I-based fluorescence, MSF), 3D7. Format: cell-based. On the procedure: Stock solutions of each test drug were prepared in DMSO at a concentration of 20 mM. The drug solutions were serially diluted with culture medium and distributed to asynchronous parasite cultures on 96-well plates in quadruplicate in a total volume of 100 μL to achieve 0.5% parasitemia with a 2% hematocrit in a total volume of 100 pt. […] After incubation, 100 μL of lysis buffer with 0.2 μL/mL SYBR Green I was added to each well.
Antimalarial potency of compounds was determined by this technique for both Plasmodium falciparum 3D7 (CQ-sensitive) and Dd2 (multi-drug resistant) strains.

For assay [2], the target named is Plasmepsin-2 (PM-2; Plm II) (Plasmodium falciparum (isolate HB3), UniProt P46925). Put plainly: Plasmepsin-2 enzyme inhibition assay. Format: biochemical. On the procedure: Plasmepsin-2 (PM-2; Plm II) and Plasmepsin (PM-4; Plm IV) expression and purification was performed following the published protocols (Istvan E S and Goldberg D E, 2005). The final purified protein was activated by diluting the protein to 0.3 mg/mL in activating buffer (0.1 M citrate pH 4.5, 0.1% Tween-20, 50 mM dithiothreitol) and incubated at room temperature for 40 min, then the activated enzyme was diluted in assay buffer (50 mM sodium acetate pH 4.7, 0.01% Tween-20). The enzymatic inhibition reaction was performed in 384 well plates with a total volume of 20 μl. 10 μl of diluted PM-2 or PM-4 enzyme was added to the 384-well plate except blank wells (blank wells add 10 μL of assay buffer) and 20 nL of serials of diluted 1000× compounds were added to the wells with 520 Echo® Liquid Handling System (Labcyte Inc.). 10 μL PM-2 peptide substrate (AnaSpec, Cat#, 62050) with assay buffer was then added to final concentration of 20 μM to start the reaction. After incubation the reaction at room temperature for 60 min, the fluorescence intensity at Ex/Em=360 nm/535 nm was measured using EnVision multilabel plate reader (Perkin-Elmer). The IC50 values were obtained using Graph Pad Prism 4 and are reported in Tables 8 and 9 below as PM-2 IC50 values.
Sequence of Plasmepsin-2 (PM-2; Plm II) (P46925 125-453 limits assumed): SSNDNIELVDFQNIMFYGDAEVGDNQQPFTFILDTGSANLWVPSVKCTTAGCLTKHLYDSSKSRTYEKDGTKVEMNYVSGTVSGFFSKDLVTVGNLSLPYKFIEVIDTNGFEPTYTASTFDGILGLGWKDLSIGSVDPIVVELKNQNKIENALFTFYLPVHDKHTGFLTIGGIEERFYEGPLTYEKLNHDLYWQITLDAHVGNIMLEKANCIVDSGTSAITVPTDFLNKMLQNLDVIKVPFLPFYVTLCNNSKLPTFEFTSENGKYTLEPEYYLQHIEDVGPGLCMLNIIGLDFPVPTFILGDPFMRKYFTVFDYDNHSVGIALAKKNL

[3] abbreviates: 3D7, Table 10, read-out: Pf3D7 IC50.
The mark [4] stands for this setting: 3D7, Table 13, read-out: 3D7 IC50.
[5] abbreviates: 3D7, Table 11, read-out: Pf 3D7 IC50.

Where two headings read alike, the source gives them in different places. A value given as a limit tells only on which side of the number the result lay.

Take `COc1ccc(C2(c3ccc(OC)cc3)NC(=S)N(C3CCCCC3)C2=O)cc1`: the IC50 in assay [1] (3D7, Table 8, read-out: Pf 3D7 IC50) was over 5 µM; in assay [2] (Table 8, read-out: PM-II IC50) it was over 10000 nM.
Consider `N=C1NC(c2ccccc2)(c2ccccc2)C(=O)N1Cc1ccccc1` [Example 102, 3-benzyl-2-imino-5,5-diphenyl-imidazolidin-4-one], for which the IC50 in assay [1] (setting [3]) stood at 8.29 µM; in assay [1] (setting [4]), 8.29 µM; in assay [2] (Table 13, read-out: PM-2 IC50), 33.1 nM.
`COc1cccc(C2(c3cccc(OC)c3)NC(=N)N(Cc3ccccc3)C2=O)c1` [Example 105, 3-benzyl-2-imino-5,5-bis(3-methoxy-phenyl)imidazolidin-4-one]: the IC50 in assay [1] (setting [4]) was 6.31 µM; in assay [2] (Table 13, read-out: PM-2 IC50), 57.4 nM.
Take `CN1C(=N)NC(c2ccccc2)(c2cccc(-c3cccnc3)c2)C1=O` (stereo not shown) [Example 135, 2-imino-3-methyl-5-phenyl-5-[3-(pyridin-3-yl)phenyl]-imidazolidin-4-one]: the IC50 in assay [2] (Table 12, read-out: PM-2 IC50) came to 1010 nM.
For `COc1ccc(C2(c3ccccc3)NC(=N)N(C3CCCCC3)C2=O)cc1` (stereo not shown) [Example 141, 3-cyclohexyl-2-imino-5-(4-methoxyphenyl)-5-phenylimidazolidin-4-one], the IC50 in assay [1] (setting [5]) worked out at 0.533 µM; in assay [1] (setting [4]), 0.533 µM; in assay [2] (Table 13, read-out: PM-2 IC50), 10.6 nM.
On to `N=C1NC(c2ccccc2)(c2ccccc2)C(=O)N1C1CC1` [Example 142, 3-cyclopropyl-2-imino-5,5-diphenylimidazolidin-4-one], for which the IC50 is 10.8 µM in assay [1] (setting [4]) and 1790 nM in assay [2] (Table 13, read-out: PM-2 IC50).
For `COc1cccc(C2(c3ccccc3)NC(=N)N(C3CCCCC3)C2=O)c1` (stereo not shown) [Example 153, 3-cyclohexyl-2-imino-5-(3-methoxyphenyl)-5-phenylimidazolidin-4-one], the 50% inhibitory concentration (IC50) in assay [1] (setting [5]) came to 0.917 µM; in assay [1] (setting [4]), 0.917 µM; in assay [2] (Table 13, read-out: PM-2 IC50), 24.9 nM.
On to `N=C1NC(c2ccc(Br)cc2)(c2ccc(Br)cc2)C(=O)N1C1CCCCC1` [Example 154, 5,5-bis(4-bromophenyl)-3-cyclohexyl-2-iminoimidazolidin-4-one], for which the IC50 is 1.48 µM in assay [1] (setting [4]) and 9.9 nM in assay [2] (Table 13, read-out: PM-2 IC50).
With `N=C1NC(c2ccc(Cl)cc2)(c2ccc(Cl)cc2)C(=O)N1C1CCCCC1` [Example 155, 5,5-bis(4-chlorophenyl)-3-cyclohexyl-2-iminoimidazolidin-4-one], the IC50 in assay [1] (setting [5]) amounted to 1.07 µM; in assay [1] (setting [4]) it was 1.07 µM; in assay [2] (Table 13, read-out: PM-2 IC50) it was 6 nM.
Turning to `Cc1ccc(C2(c3ccc(C)cc3)NC(=N)N(C3CCCCC3)C2=O)cc1` [Example 156, 3-cyclohexyl-2-imino-5,5-bis(4-methylphenyl)-imidazolidin-4-one], the IC50 in assay [1] (setting [5]) came out at 1.26 µM; in assay [1] (setting [4]), 1.26 µM; in assay [2] (Table 13, read-out: PM-2 IC50), 14 nM.
With `CCOc1ccc(C2(c3ccc(OCC)cc3)NC(=N)N(C3CCCCC3)C2=O)cc1` [Example 157, 3-cyclohexyl-5,5-bis(4-ethoxyphenyl)-2-iminoimidazolidin-4-one], the half-maximal inhibitory concentration (IC50) stood at 0.466 µM in assay [1] (setting [5]); 0.466 µM in assay [1] (setting [4]); 6.87 nM in assay [2] (Table 13, read-out: PM-2 IC50).
For the molecule `COc1ccc(C2(c3ccc(OC)cc3)NC(=N)N(C3CCCC3)C2=O)cc1` [Example 159, 3-cyclopentyl-2-imino-5,5-bis(4-methoxyphenyl)-imidazolidin-4-one], the IC50 in assay [1] (setting [3]) stood at 0.611 µM; in assay [1] (setting [4]), 0.611 µM; in assay [2] (Table 13, read-out: PM-2 IC50) it was 25.1 nM.
With `COc1ccc(C2(c3ccc(OC)cc3)NC(=N)N(Cc3ccccc3)C2=O)cc1` [Example 162, 3-benzyl-2-imino-5,5-bis(4-methoxyphenyl)-imidazolidin-4-one], the IC50 in assay [1] (setting [3]) was found to be 0.855 µM; in assay [1] (setting [4]), 0.855 µM; in assay [2] (Table 13, read-out: PM-2 IC50), 7.3 nM.
Consider `COc1cccc(C2(c3cccc(OC)c3)NC(=N)N(C3CC3)C2=O)c1` [Example 167, 3-cyclopropyl-2-imino-5,5-bis(3-methoxyphenyl)-imidazolidin-4-one], for which the IC50 in assay [1] (setting [4]) stood at 9.32 µM; in assay [2] (Table 13, read-out: PM-2 IC50) it was 2830 nM.
With `COc1cccc(C2(c3cccc(OC)c3)NC(=N)N(C3CCCC3)C2=O)c1` [Example 168, 3-cyclopentyl-2-imino-5,5-bis(3-methoxyphenyl)-imidazolidin-4-one], the 50% inhibitory concentration (IC50) in assay [1] (setting [4]) stood at 1.09 µM; in assay [2] (Table 13, read-out: PM-2 IC50) it was 110 nM.
Turning to `COc1ccc(C2(c3cccc(-c4ccncc4)c3)NC(=N)N(C3CCCCC3)C2=O)cc1` (stereo not shown) [Example 172, 3-cyclohexyl-2-imino-5-(4-methoxyphenyl)-5-[3-(pyridin-4-yl)phenyl]-imidazolidin-4-one], the IC50 in assay [1] (setting [4]) came out at 0.533 µM; in assay [2] (Table 13, read-out: PM-2 IC50), 9.64 nM.
Take `COc1ccc(C2(c3ccc(OC)c(OC)c3)NC(=N)N(C3CCCCC3)C2=O)cc1OC` [Example 173, 3-cyclohexyl-5,5-bis(3,4-dimethoxy-phenyl)-2-imino-imidazolidin-4-one]: the IC50 in assay [1] (setting [4]) was determined as 0.614 µM; in assay [2] (Table 13, read-out: PM-2 IC50), 54.7 nM.
Turning to `COc1ccc(C2(c3cccc(-c4ccccc4)c3)NC(=N)N(C3CCCCC3)C2=O)cc1` (stereo not shown) [Example 177, 3-cyclohexyl-2-imino-5-(4-methoxyphenyl)-5-(3-phenylphenyl)-imidazolidin-4-one], the IC50 was determined as 1.49 µM in assay [1] (setting [5]); 1.49 µM in assay [1] (setting [4]); 11.7 nM in assay [2] (Table 13, read-out: PM-2 IC50).
`N=C1NC(c2ccccc2)(c2ccccc2)C(=O)N1C1CCOCC1` [Example 198, 2-imino-3-(oxan-4-yl)-5,5-diphenyl-imidazolidin-4-one]: the half-inhibitory concentration (IC50) in assay [1] (setting [4]) was over 2.5 µM; in assay [2] (Table 13, read-out: PM-2 IC50) it was 118 nM.
Consider `N=C1NC(c2ccc(OC(F)(F)F)cc2)(c2ccc(OC(F)(F)F)cc2)C(=O)N1C1CCCCC1` [Example 201, 3-cyclohexyl-2-imino-5,5-bis[4-(trifluoromethoxy)-phenyl]imidazolidin-4-one], for which the IC50 in assay [1] (setting [5]) was determined as 2.2 µM; in assay [1] (setting [4]) it was 2.2 µM; in assay [2] (Table 13, read-out: PM-2 IC50), 55.1 nM.
As for `N=C1NC(c2ccccc2Cl)(c2ccccc2Cl)C(=O)N1C1CCCCC1` [Example 202, 5,5-bis(2-chlorophenyl)-3-cyclohexyl-2-iminoimidazolidin-4-one], the 50% inhibitory concentration (IC50) in assay [1] (setting [4]) came to 0.349 µM; in assay [2] (Table 13, read-out: PM-2 IC50) it was 6750 nM.
For `COc1ccc(C2(c3ccc(OC)cc3)NC(=N)N(Cc3ccncc3)C2=O)cc1` [Example 203, 2-imino-5,5-bis(4-methoxyphenyl)-3-(pyridin-4-ylmethyl)-imidazolidin-4-one], the concentration for half-maximal inhibition (IC50) in assay [1] (setting [4]) came out at 1.13 µM; in assay [2] (Table 13, read-out: PM-2 IC50), 14.9 nM.
With `COc1ccc(C2(c3ccc(OC)cc3)NC(=N)N(C3CCC3)C2=O)cc1` [Example 204, 3-cyclobutyl-2-imino-5,5-bis(4-methoxyphenyl)-imidazolidin-4-one], the IC50 was 0.722 µM in assay [1] (setting [3]); 0.722 µM in assay [1] (setting [4]); 67.4 nM in assay [2] (Table 13, read-out: PM-2 IC50).
Consider `COc1ccc(C2(c3ccc(OC)cc3)NC(=N)N(C3CCN(Cc4cc(Cl)ccc4O)CC3)C2=O)cc1` [Example 569, 3-(1-(5-chloro-2-hydroxybenzyl)piperidin-4-yl)-2-imino-5,5-bis(4-methoxyphenyl)-imidazolidin-4-one], for which, in assay [1] (setting [4]), the IC50 amounted to 0.45 µM.
In the case of `N=C1NC(c2cccc(Oc3ccccc3)c2)(C2CC2)C(=O)N1C1CCCCC1` (stereo not shown) [Example 570, 3-cyclohexyl-5-cyclopropyl-2-imino-5-(3-phenoxyphenyl)imidazolidin-4-one], in assay [1] (setting [4]), the IC50 was 2.87 µM.
On the same count and under the same terms, the same measure for `COc1ccc(C2(c3ccc(OC)cc3)NC(=N)N(C3CCN(Cc4ccccc4O)CC3)C2=O)cc1` [Example 571, 3-(1-(2-hydroxybenzyl)piperidin-4-yl)-2-imino-5,5-bis(4-methoxyphenyl)-imidazolidin-4-one]: 0.4 µM.
On the same count and under the same terms, the value for `N=C1NC(c2ccccc2O)(C2CC2)C(=O)N1C1CCCCC1` (stereo not shown) [Example 573, 3-cyclohexyl-5-cyclopropyl-5-(2-hydroxyphenyl)-2-iminoimidazolidin-4-one] was over 20 µM.
As to `N=C1NC(c2ccc(Cl)cc2)(C2CCCCC2)C(=O)N1C1CCOCC1` (stereo not shown) [Example 574, 5-(4-chlorophenyl)-5-cyclohexyl-2-imino-3-(tetrahydro-2H-pyran-4-yl)imidazolidin-4-one], the IC50 in assay [1] (setting [4]) came out at 0.27 µM.
Still for that read-out and setting: the value for `N=C1NC(c2ccc(Cl)cc2)(C2CCCCC2)C(=O)N1C1CCCCC1` (stereo not shown) [Example 575, 5-(4-chlorophenyl)-3,5-dicyclohexyl-2-iminoimidazolidin-4-one] was 1.09 µM.
Turning to `N=C1NC(c2ccc(Cl)cc2)(C2CC2)C(=O)N1C1CCCCC1` (stereo not shown) [Example 577, 5-(4-chlorophenyl)-3-cyclohexyl-5-cyclopropyl-2-iminoimidazolidin-4-one], in assay [1] (setting [4]), the IC50 was 1.67 µM.
Consider `CCC(CN1C(=N)NC(c2ccccc2)(c2ccccc2)C1=O)c1ccccc1` (stereo not shown) [drawing 195], for which the IC50 in assay [1] (3D7, read-out: Pf3D7 IC50 (μM), Table 10) is 2.76 µM.

By IC50 is commonly meant the point on the concentration scale where inhibition reaches its midpoint.
